Experimental data from PubChem BioAssay (NCI).
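Grown in 96-well plates, cells were treated for 48 hours with each compound at five concentrations. Insufficient inhibition: endpoint recorded as highest concentration tested. TGI: total growth inhibition.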

Assays:
Experiment in all cases: growth of human tumour cells (NCI), 48 h
HCT-116 colon = system: HCT-116 colon
HOP-92 NSCLC = system: HOP-92 NSCLC
MALME-3M melanoma = system: MALME-3M melanoma
UACC-62 melanoma = system: UACC-62 melanoma
OVCAR-8 ovarian = system: OVCAR-8 ovarian
K-562 leukemia = system: K-562 leukemia
MOLT-4 leukemia = system: MOLT-4 leukemia
MDA-MB-231 breast = system: MDA-MB-231 breast
OVCAR-4 ovarian = system: OVCAR-4 ovarian
OVCAR-3 ovarian = system: OVCAR-3 ovarian
OVCAR-5 ovarian = system: OVCAR-5 ovarian
IGROV1 ovarian = system: IGROV1 ovarian
PC-3 prostate = system: PC-3 prostate
HCC-2998 colon = system: HCC-2998 colon
RXF 393 renal = system: RXF 393 renal
EKVX NSCLC = system: EKVX NSCLC
RPMI-8226 leukemia = system: RPMI-8226 leukemia
CCRF-CEM leukemia = system: CCRF-CEM leukemia
NCI-H522 lung = system: NCI-H522 lung
HCT-15 colon = system: HCT-15 colon
ACHN renal = system: ACHN renal
SF-268 CNS = system: SF-268 CNS
KM12 colon = system: KM12 colon
LOX IMVI melanoma = system: LOX IMVI melanoma
HT29 colon = system: HT29 colon
NCI-H23 lung = system: NCI-H23 lung
NCI/ADR-RES ovarian = system: NCI/ADR-RES ovarian
CAKI-1 renal = system: CAKI-1 renal
DU-145 prostate = system: DU-145 prostate
NCI-H226 lung = system: NCI-H226 lung
HL-60(TB) leukemia = system: HL-60(TB) leukemia
MDA-MB-435 = system: MDA-MB-435
SF-539 CNS = system: SF-539 CNS
HS 578T breast = system: HS 578T breast
TK-10 renal = system: TK-10 renal
786-0 renal = system: 786-0 renal
SN12C renal = system: SN12C renal
MCF7 breast = system: MCF7 breast
UO-31 renal = system: UO-31 renal
UACC-257 melanoma = system: UACC-257 melanoma
SF-295 CNS = system: SF-295 CNS
SR leukemia = system: SR leukemia
SW-620 colon = system: SW-620 colon
SNB-75 CNS = system: SNB-75 CNS
U251 CNS = system: U251 CNS
SK-MEL-5 melanoma = system: SK-MEL-5 melanoma
BT-549 breast = system: BT-549 breast
NCI-H460 lung = system: NCI-H460 lung
COLO 205 colon = system: COLO 205 colon
SNB-19 CNS = system: SNB-19 CNS
T-47D breast = system: T-47D breast
MDA-N = system: MDA-N
SK-MEL-28 melanoma = system: SK-MEL-28 melanoma
A498 renal = system: A498 renal
HOP-62 NSCLC = system: HOP-62 NSCLC
SK-OV-3 ovarian = system: SK-OV-3 ovarian
SK-MEL-2 melanoma = system: SK-MEL-2 melanoma
A549 NSCLC = system: A549 NSCLC

O=C(Nc1nc(C23CC4CC(CC(C4)C2)C3)cs1)c1cc2cc(Br)cc(Br)c2oc1=O
TGI (HCT-116 colon): > 100 µM | TGI (HOP-92 NSCLC): > 100 µM | TGI (MALME-3M melanoma): > 100 µM | TGI (UACC-62 melanoma): > 100 µM | TGI (OVCAR-8 ovarian): > 100 µM | TGI (K-562 leukemia): > 100 µM | TGI (MOLT-4 leukemia): > 100 µM | TGI (MDA-MB-231 breast): > 100 µM | TGI (OVCAR-4 ovarian): > 100 µM | TGI (OVCAR-3 ovarian): > 100 µM | TGI (OVCAR-5 ovarian): > 100 µM | TGI (IGROV1 ovarian): > 100 µM | TGI (PC-3 prostate): > 100 µM | TGI (HCC-2998 colon): > 100 µM | TGI (RXF 393 renal): > 100 µM | TGI (EKVX NSCLC): > 100 µM | TGI (RPMI-8226 leukemia): > 100 µM | TGI (CCRF-CEM leukemia): > 100 µM | TGI (NCI-H522 lung): > 100 µM | TGI (HCT-15 colon): > 100 µM | TGI (ACHN renal): > 100 µM | TGI (SF-268 CNS): > 100 µM | TGI (KM12 colon): > 100 µM | TGI (LOX IMVI melanoma): > 100 µM | TGI (HT29 colon): > 100 µM | TGI (NCI-H23 lung): > 100 µM | TGI (NCI/ADR-RES ovarian): > 100 µM | TGI (CAKI-1 renal): > 100 µM | TGI (DU-145 prostate): > 100 µM | TGI (NCI-H226 lung): > 100 µM | TGI (HL-60(TB) leukemia): > 100 µM | TGI (MDA-MB-435): > 100 µM | TGI (SF-539 CNS): > 100 µM | TGI (HS 578T breast): 79.7 µM | TGI (TK-10 renal): > 100 µM | TGI (786-0 renal): > 100 µM | TGI (SN12C renal): > 100 µM | TGI (MCF7 breast): > 100 µM | TGI (UO-31 renal): > 100 µM | TGI (UACC-257 melanoma): > 100 µM | TGI (SF-295 CNS): > 100 µM | TGI (SR leukemia): > 100 µM | TGI (SW-620 colon): > 100 µM | TGI (SNB-75 CNS): 85.5 µM | TGI (U251 CNS): 41.5 µM | TGI (SK-MEL-5 melanoma): > 100 µM | TGI (BT-549 breast): > 100 µM | TGI (NCI-H460 lung): > 100 µM | TGI (COLO 205 colon): > 100 µM | TGI (SNB-19 CNS): > 100 µM | TGI (T-47D breast): > 100 µM | TGI (MDA-N): > 100 µM | TGI (SK-MEL-28 melanoma): > 100 µM | TGI (A498 renal): > 100 µM | TGI (HOP-62 NSCLC): > 100 µM | TGI (SK-OV-3 ovarian): > 100 µM | TGI (SK-MEL-2 melanoma): > 100 µM | TGI (A549 NSCLC): > 100 µM
